Reference: publication PMC7517944, “Design and Synthesis of Novel Nordihydroguaiaretic Acid (NDGA) Analogues as Potential FGFR1 Kinase Inhibitors With Anti-Gastric Activity and Chemosensitizing Effect” (Frontiers in Pharmacology, 2020)

How the values were obtained:
FGFR1 kinase [1] = biological target: T1, FGFR1 kinase (Homo sapiens, UniProt P11362); assay: cell-free Caliper mobility shift kinase assay, inhibition at […]; assay type: biochemical
FGFR1 kinase [2] = biological target: T1, FGFR1 kinase; assay: cell-free Caliper mobility shift kinase assay, […] inhibition at […]; also lowers p-FGFR1 in cells; assay type: biochemical

T1 sequence (P11362 22-822): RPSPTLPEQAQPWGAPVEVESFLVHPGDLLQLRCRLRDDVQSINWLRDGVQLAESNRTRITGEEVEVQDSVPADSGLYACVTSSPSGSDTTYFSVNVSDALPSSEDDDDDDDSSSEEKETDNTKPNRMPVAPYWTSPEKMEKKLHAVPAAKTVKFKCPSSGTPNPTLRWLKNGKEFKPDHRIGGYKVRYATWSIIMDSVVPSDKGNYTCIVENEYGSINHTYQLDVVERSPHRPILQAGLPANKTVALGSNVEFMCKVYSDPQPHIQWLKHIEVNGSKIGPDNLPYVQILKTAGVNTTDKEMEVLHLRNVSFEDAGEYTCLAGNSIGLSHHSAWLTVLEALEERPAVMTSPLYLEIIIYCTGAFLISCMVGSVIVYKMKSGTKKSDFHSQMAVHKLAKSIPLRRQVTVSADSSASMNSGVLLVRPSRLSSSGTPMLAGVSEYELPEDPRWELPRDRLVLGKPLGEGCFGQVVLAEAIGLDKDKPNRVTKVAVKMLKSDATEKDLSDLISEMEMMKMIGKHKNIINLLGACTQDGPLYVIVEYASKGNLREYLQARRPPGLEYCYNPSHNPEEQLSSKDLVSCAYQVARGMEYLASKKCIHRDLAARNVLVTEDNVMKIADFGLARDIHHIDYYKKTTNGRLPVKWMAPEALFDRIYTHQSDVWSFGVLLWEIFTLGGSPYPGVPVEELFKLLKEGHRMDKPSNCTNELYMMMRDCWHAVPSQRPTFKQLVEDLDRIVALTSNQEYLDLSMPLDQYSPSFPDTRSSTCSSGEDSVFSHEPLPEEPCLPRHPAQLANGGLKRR

inhibition at 20 µM (FGFR1 kinase [1]) [%] | inhibition at 20 µM (FGFR1 kinase [2]) [%] | Structure (SMILES)
71.4 | – | O=C1/C(=C/c2ccc(N3CCOCC3)cc2)COC/C1=C\c1ccc(O)c(O)c1 [Y13, (3E,5E)-3-(3,4-dihydroxybenzylidene)-5-(4-morpholinobenzylidene)dihydro-2H-pyran-4(3H)-one]
73.7 | – | O=C1/C(=C/c2cccc(O)c2)COC/C1=C\c1ccc(O)c(O)c1 [Y7, (3E,5E)-3-(3,4-dihydroxybenzylidene)-5-(3-hydroxybenzylidene)dihydro-2H-pyran-4(3H)-one]
55.7 | – | COc1cc(/C=C2\COC/C(=C\c3ccc(O)c(O)c3)C2=O)ccc1O [Y2, (3E,5E)-3-(3,4-dihydroxybenzylidene)-5-(4-hydroxy-3-methoxybenzylidene)dihydro-2H-pyran-4(3H)-one]
67.6 | – | COc1ccc(OC)c(/C=C2\COC/C(=C\c3ccc(O)c(O)c3)C2=O)c1 [Y15, (3E,5E)-3-(3,4-dihydroxybenzylidene)-5-(2,5-dimethoxybenzylidene)dihydro-2H-pyran-4(3H)-one]
92.8 | – | O=C1/C(=C/c2ccc(O)c(O)c2)COC/C1=C\c1ccc(O)c(O)c1 [Af23]
78.5 | – | O=C1/C(=C/c2ccc(O)cc2)COC/C1=C\c1ccc(O)c(O)c1 [Y5, (3E,5E)-3-(3,4-dihydroxybenzylidene)-5-(4-hydroxybenzylidene)dihydro-2H-pyran-4(3H)-one]
53.5 | – | COc1ccc(/C=C2\COC/C(=C\c3ccc(O)c(O)c3)C2=O)cc1O [Y9, (3E,5E)-3-(3,4-dihydroxybenzylidene)-5-(3-hydroxy-4-methoxybenzylidene)dihydro-2H-pyran-4(3H)-one]
– | 92 | COc1cccc(/C=C2\COC/C(=C\c3ccc(O)c(O)c3)C2=O)c1OC [Y14, (3E,5E)-3-(3,4-dihydroxybenzylidene)-5-(2,3-dimethoxybenzylidene)dihydro-2H-pyran-4(3H)-one]
54.2 | – | COc1ccccc1/C=C1\COC/C(=C\c2ccc(O)c(O)c2)C1=O [Y11, (3E,5E)-3-(3,4-dihydroxybenzylidene)-5-(2-methoxybenzylidene)dihydro-2H-pyran-4(3H)-one]
